Test results from ChEMBL document CHEMBL3632622, “Synthesis and biological evaluation of novel N-phenyl ureidobenzenesulfonate derivatives as potential anticancer agents. Part 2. Modulation of the ring B” (Eur J Med Chem, 2015).

Tests used:
[1] = Antiproliferative activity against human HT1080 cells assessed as growth inhibition incubated for 48 hrs by sulforhodamine B assay; format: functional, cell-based, HT-1080; conditions: Homo sapiens, HT-1080, 48 h; read-out: IC50
M21 [2] = assay: Antiproliferative activity against human M21 cells assessed as growth inhibition incubated for 48 hrs by sulforhodamine B assay; format: functional, cell-based; conditions: M21, 48 h
M21 [3] = assay: Cell cycle arrest in human M21 cells assessed as accumulation at G2/M phase at 3.8 uM after 24 hrs by DAPI staining-based flow cytometry (reference value: 16%); format: functional
M21 [4] = assay: Cell cycle arrest in human M21 cells assessed as accumulation at G0/G1 phase at 3.8 uM after 24 hrs by DAPI staining-based flow cytometry (reference value: 65.1%); format: functional
M21 [5] = assay: Cell cycle arrest in human M21 cells assessed as accumulation at S phase at 3.8 uM after 24 hrs by DAPI staining-based flow cytometry (reference value: 17.4%); format: functional
HT-29 = assay: Antiproliferative activity against human HT-29 cells assessed as growth inhibition incubated for 48 hrs by sulforhodamine B assay; format: functional, cell-based; conditions: HT-29, 48 h
MCF7 = assay: Antiproliferative activity against human MCF7 cells assessed as growth inhibition incubated for 48 hrs by sulforhodamine B assay; format: functional, cell-based; conditions: MCF7, 48 h
M21 [6] = assay: Cell cycle arrest in human M21 cells assessed as accumulation at subG1 phase at 3.8 uM after 24 hrs by DAPI staining-based flow cytometry (reference value: 1.5%); format: functional
M21 [7] = assay: Cell cycle arrest in human M21 cells assessed as accumulation at G0/G1 phase at 11 uM after 24 hrs by DAPI staining-based flow cytometry (reference value: 65.1%); format: functional
M21 [8] = assay: Cell cycle arrest in human M21 cells assessed as accumulation at subG1 phase at 11 uM after 24 hrs by DAPI staining-based flow cytometry (reference value: 1.5%); format: functional
M21 [9] = assay: Cell cycle arrest in human M21 cells assessed as accumulation at G2/M phase at 11 uM after 24 hrs by DAPI staining-based flow cytometry (reference value: 16%); format: functional
M21 [10] = assay: Cell cycle arrest in human M21 cells assessed as accumulation at S phase at 11 uM after 24 hrs by DAPI staining-based flow cytometry (reference value: 17.4%); format: functional
M21 [11] = assay: Cell cycle arrest in human M21 cells assessed as accumulation at subG1 phase at 1.2 uM after 24 hrs by DAPI staining-based flow cytometry (reference value: 1.5%); format: functional
M21 [12] = assay: Cell cycle arrest in human M21 cells assessed as accumulation at S phase at 1.2 uM after 24 hrs by DAPI staining-based flow cytometry (reference value: 17.4%); format: functional
M21 [13] = assay: Cell cycle arrest in human M21 cells assessed as accumulation at G2/M phase at 1.2 uM after 24 hrs by DAPI staining-based flow cytometry (reference value: 16%); format: functional
M21 [14] = assay: Cell cycle arrest in human M21 cells assessed as accumulation at G0/G1 phase at 1.2 uM after 24 hrs by DAPI staining-based flow cytometry (reference value: 65.1%); format: functional
M21 [15] = assay: Cell cycle arrest in human M21 cells assessed as accumulation at subG1 phase at 1.7 uM after 24 hrs by DAPI staining-based flow cytometry (reference value: 1.5%); format: functional
M21 [16] = assay: Cell cycle arrest in human M21 cells assessed as accumulation at G2/M phase at 1.7 uM after 24 hrs by DAPI staining-based flow cytometry (reference value: 16%); format: functional
M21 [17] = assay: Cell cycle arrest in human M21 cells assessed as accumulation at S phase at 1.7 uM after 24 hrs by DAPI staining-based flow cytometry (reference value: 17.4%); format: functional
M21 [18] = assay: Cell cycle arrest in human M21 cells assessed as accumulation at G0/G1 phase at 1.7 uM after 24 hrs by DAPI staining-based flow cytometry (reference value: 65.1%); format: functional
M21 [19] = assay: Cell cycle arrest in human M21 cells assessed as accumulation at S phase at 25 uM after 24 hrs by DAPI staining-based flow cytometry (reference value: 17.4%); format: functional
M21 [20] = assay: Cell cycle arrest in human M21 cells assessed as accumulation at G0/G1 phase at 25 uM after 24 hrs by DAPI staining-based flow cytometry (reference value: 65.1%); format: functional
M21 [21] = assay: Cell cycle arrest in human M21 cells assessed as accumulation at subG1 phase at 25 uM after 24 hrs by DAPI staining-based flow cytometry (reference value: 1.5%); format: functional
M21 [22] = assay: Cell cycle arrest in human M21 cells assessed as accumulation at G2/M phase at 25 uM after 24 hrs by DAPI staining-based flow cytometry (reference value: 16%); format: functional
M21 [23] = assay: Cell cycle arrest in human M21 cells assessed as accumulation at G2/M phase at 49 uM after 24 hrs by DAPI staining-based flow cytometry (reference value: 16%); format: functional
M21 [24] = assay: Cell cycle arrest in human M21 cells assessed as accumulation at subG1 phase at 49 uM after 24 hrs by DAPI staining-based flow cytometry (reference value: 1.5%); format: functional
M21 [25] = assay: Cell cycle arrest in human M21 cells assessed as accumulation at G0/G1 phase at 49 uM after 24 hrs by DAPI staining-based flow cytometry (reference value: 65.1%); format: functional
M21 [26] = assay: Cell cycle arrest in human M21 cells assessed as accumulation at S phase at 49 uM after 24 hrs by DAPI staining-based flow cytometry (reference value: 17.4%); format: functional
M21 [27] = assay: Cell cycle arrest in human M21 cells assessed as accumulation at subG1 phase at 32 uM after 24 hrs by DAPI staining-based flow cytometry (reference value: 1.5%); format: functional
M21 [28] = assay: Cell cycle arrest in human M21 cells assessed as accumulation at S phase at 32 uM after 24 hrs by DAPI staining-based flow cytometry (reference value: 17.4%); format: functional
M21 [29] = assay: Cell cycle arrest in human M21 cells assessed as accumulation at G2/M phase at 32 uM after 24 hrs by DAPI staining-based flow cytometry (reference value: 16%); format: functional
M21 [30] = assay: Cell cycle arrest in human M21 cells assessed as accumulation at G0/G1 phase at 32 uM after 24 hrs by DAPI staining-based flow cytometry (reference value: 65.1%); format: functional
M21 [31] = assay: Cell cycle arrest in human M21 cells assessed as accumulation at subG1 phase at 42 uM after 24 hrs by DAPI staining-based flow cytometry (reference value: 1.5%); format: functional
M21 [32] = assay: Cell cycle arrest in human M21 cells assessed as accumulation at G0/G1 phase at 42 uM after 24 hrs by DAPI staining-based flow cytometry (reference value: 65.1%); format: functional
M21 [33] = assay: Cell cycle arrest in human M21 cells assessed as accumulation at S phase at 42 uM after 24 hrs by DAPI staining-based flow cytometry (reference value: 17.4%); format: functional
M21 [34] = assay: Cell cycle arrest in human M21 cells assessed as accumulation at G2/M phase at 42 uM after 24 hrs by DAPI staining-based flow cytometry (reference value: 16%); format: functional
M21 [35] = assay: Cell cycle arrest in human M21 cells assessed as accumulation at G2/M phase at 40 uM after 24 hrs by DAPI staining-based flow cytometry (reference value: 16%); format: functional
M21 [36] = assay: Cell cycle arrest in human M21 cells assessed as accumulation at G0/G1 phase at 40 uM after 24 hrs by DAPI staining-based flow cytometry (reference value: 65.1%); format: functional
M21 [37] = assay: Cell cycle arrest in human M21 cells assessed as accumulation at S phase at 40 uM after 24 hrs by DAPI staining-based flow cytometry (reference value: 17.4%); format: functional
M21 [38] = assay: Cell cycle arrest in human M21 cells assessed as accumulation at subG1 phase at 40 uM after 24 hrs by DAPI staining-based flow cytometry (reference value: 1.5%); format: functional
M21 [39] = assay: Cell cycle arrest in human M21 cells assessed as accumulation at subG1 phase at 7.5 uM after 24 hrs by DAPI staining-based flow cytometry (reference value: 1.5%); format: functional
M21 [40] = assay: Cell cycle arrest in human M21 cells assessed as accumulation at S phase at 7.5 uM after 24 hrs by DAPI staining-based flow cytometry (reference value: 17.4%); format: functional
M21 [41] = assay: Cell cycle arrest in human M21 cells assessed as accumulation at G0/G1 phase at 7.5 uM after 24 hrs by DAPI staining-based flow cytometry (reference value: 65.1%); format: functional
M21 [42] = assay: Cell cycle arrest in human M21 cells assessed as accumulation at G2/M phase at 7.5 uM after 24 hrs by DAPI staining-based flow cytometry (reference value: 16%); format: functional
M21 [43] = assay: Cell cycle arrest in human M21 cells assessed as accumulation at S phase at 22 uM after 24 hrs by DAPI staining-based flow cytometry (reference value: 17.4%); format: functional
M21 [44] = assay: Cell cycle arrest in human M21 cells assessed as accumulation at G0/G1 phase at 22 uM after 24 hrs by DAPI staining-based flow cytometry (reference value: 65.1%); format: functional
M21 [45] = assay: Cell cycle arrest in human M21 cells assessed as accumulation at G2/M phase at 22 uM after 24 hrs by DAPI staining-based flow cytometry (reference value: 16%); format: functional
M21 [46] = assay: Cell cycle arrest in human M21 cells assessed as accumulation at subG1 phase at 22 uM after 24 hrs by DAPI staining-based flow cytometry (reference value: 1.5%); format: functional
M21 [47] = assay: Cell cycle arrest in human M21 cells assessed as accumulation at subG1 phase at 43 uM after 24 hrs by DAPI staining-based flow cytometry (reference value: 1.5%); format: functional
M21 [48] = assay: Cell cycle arrest in human M21 cells assessed as accumulation at S phase at 43 uM after 24 hrs by DAPI staining-based flow cytometry (reference value: 17.4%); format: functional
M21 [49] = assay: Cell cycle arrest in human M21 cells assessed as accumulation at G2/M phase at 43 uM after 24 hrs by DAPI staining-based flow cytometry (reference value: 16%); format: functional
M21 [50] = assay: Cell cycle arrest in human M21 cells assessed as accumulation at G0/G1 phase at 43 uM after 24 hrs by DAPI staining-based flow cytometry (reference value: 65.1%); format: functional

Structure (SMILES) | IC50 [1] [µM] | IC50 (M21 [2]) [µM] | IC50 (HT-29) [µM] | IC50 (MCF7) [µM] | other results
O=C(NCCCl)Nc1ccc(S(=O)(=O)Oc2cc(Cl)cc(Cl)c2)cc1 | 1.1 | 0.51 | 0.55 | 1 | Activity (M21 [3]): 84.3%; Activity (M21 [4]): 2.5%; Activity (M21 [5]): 6%; Activity (M21 [6]): 7.2%
CCOc1cccc(OS(=O)(=O)c2ccc(NC(=O)NCCCl)cc2)c1 | 3.3 | 2.4 | 3.2 | 3.3 | Activity (M21 [7]): 22.2%; Activity (M21 [8]): 8.4%; Activity (M21 [9]): 55.9%; Activity (M21 [10]): 13.5%
O=C(NCCCl)Nc1ccc(S(=O)(=O)Oc2cc(Br)cc(Br)c2)cc1 | 0.4 | 0.24 | 0.3 | 0.4 | Activity (M21 [11]): 7.1%; Activity (M21 [12]): 6.9%; Activity (M21 [13]): 83.4%; Activity (M21 [14]): 2.6%
COc1cc(OS(=O)(=O)c2ccc(NC(=O)NCCCl)cc2)cc(OC)c1OC | 0.64 | 0.47 | 0.5 | 0.66 | Activity (M21 [15]): 9.3%; Activity (M21 [16]): 66.1%; Activity (M21 [17]): 9%; Activity (M21 [18]): 15.6%
COc1cccc(OS(=O)(=O)c2ccc(NC(=O)NCCCl)cc2)c1 | 3.1 | 3.6 | 3.8 | 4.2 | Activity (M21 [19]): 6.3%; Activity (M21 [20]): 2.5%; Activity (M21 [21]): 3.5%; Activity (M21 [22]): 87.7%
CCOc1ccc(OS(=O)(=O)c2ccc(NC(=O)NCCCl)cc2)cc1 | 8.3 | 8.3 | 7.8 | 9.5 | Activity (M21 [23]): 74.9%; Activity (M21 [24]): 3.5%; Activity (M21 [25]): 13.4%; Activity (M21 [26]): 8.2%
O=C(NCCCl)Nc1ccc(S(=O)(=O)Oc2cc(F)cc(F)c2)cc1 | 5.7 | 5 | 4.8 | 5.7 | Activity (M21 [27]): 6.7%; Activity (M21 [28]): 10.2%; Activity (M21 [29]): 75.7%; Activity (M21 [30]): 7.4%
O=C(NCCCl)Nc1ccc(S(=O)(=O)Oc2ccc(F)c(F)c2)cc1 | 8.1 | 7.3 | 7 | 8.9 | Activity (M21 [31]): 7.6%; Activity (M21 [32]): 11.6%; Activity (M21 [33]): 18.3%; Activity (M21 [34]): 62.5%
O=C(NCCCl)Nc1ccc(S(=O)(=O)Oc2ccc(Br)cc2)cc1 | 9.6 | 8.1 | 8.3 | 9.4 | Activity (M21 [35]): 76.1%; Activity (M21 [36]): 12%; Activity (M21 [37]): 4.4%; Activity (M21 [38]): 7.5%
COc1cc(OC)cc(OS(=O)(=O)c2ccc(NC(=O)NCCCl)cc2)c1 | 1.5 | 1.1 | 1.1 | 2 | Activity (M21 [39]): 11.4%; Activity (M21 [40]): 5.2%; Activity (M21 [41]): 9.3%; Activity (M21 [42]): 74.1%
CCCc1cccc(OS(=O)(=O)c2ccc(NC(=O)NCCCl)cc2)c1 | 2.6 | 3.3 | 3.4 | 3.9 | Activity (M21 [43]): 5.8%; Activity (M21 [44]): 9.9%; Activity (M21 [45]): 78.3%; Activity (M21 [46]): 6%
CCCCOc1ccc(OS(=O)(=O)c2ccc(NC(=O)NCCCl)cc2)cc1 | 3.4 | 7.7 | 6.5 | 7.1 | Activity (M21 [47]): 8.3%; Activity (M21 [48]): 9.1%; Activity (M21 [49]): 42.9%; Activity (M21 [50]): 39.7%
